In ChEMBL document CHEMBL3507680, “University of Dundee, Gates Library screen for HepG2 cell viability” one finds cytotoxicity data, which are given here for 104 compounds.

This series in a line: Human HepG2 cell viability assay in 384 well format. To be noted: HepG2 cells, read-out: Inhibition. It counts as toxicity, cell-based. Set-up: dose 125 nL, time 70.5 hour; concentration not given beside the values.
Take `CCn1ncc2c1CCCC2NCc1csc(C(C)C)n1` (centres undefined): the cytotoxicity at 70.5 h came out at 0.0472%.
The same measure for `CCCc1cc(N2CCCC2Cn2nc(C)nc2C)n2ncnc2n1` (centres undefined): -0.261%.
The result for `CCS(=O)(=O)NCC(=O)N1CC2(CCCC2)c2c(F)cccc21` reads -1.86%; that for `COc1cc(F)ccc1N(C)Cc1ccncc1`, -1.33%.
`COc1ccc(N(C(=O)Cc2ccc(C)nc2)C(C)C)cc1F`: the cytotoxicity at 70.5 h was -5.23%.
The result for `COc1ccc2cc(CN(C)C(C)c3nc(C(C)(C)C)no3)ccc2c1` (centres undefined) reads -5.37%; that for `Cc1cccc(C(=O)Nc2cccc3c2C(=O)NC3)n1`, -5.67%.
On to `CC(C)NC(=O)CCNC(=O)c1cc(F)ccc1NS(C)(=O)=O`, for which the cytotoxicity at 70.5 h came to 15.1%.
The result for `CCOC(=O)c1nc(CN2CCC(NC(=O)C(C)C)CC2)cs1` reads -3.69%; that for `Cc1ccc(NS(C)(=O)=O)c(C(=O)NCCC(=O)NC(C)C)c1`, -6.46%.
For `COc1ccc(N(C(=O)c2ccc(C)nc2)C(C)C)cc1F`, the cytotoxicity at 70.5 h was determined as 15.8%.
The result for `Cc1ccnc(N2CCC(NCCOc3ccccc3)CC2)n1` reads -4.28%; that for `CC(C)(C)C(=O)NCC(=O)NC1CC(c2cccc(Cl)c2)C1` (centres undefined), -1.37%; that for `CS(=O)(=O)CCC(=O)NC1CC(c2cccc(Cl)c2)C1` (centres undefined), 14.6%.
On to `Cc1cc(NCC(=O)N(C)CC(F)(F)F)c(C(N)=O)cc1F`, for which the cytotoxicity at 70.5 h turned out to be 1.83%.
The same measure for `O=C1CC(CNc2cncc(Cl)n2)c2ccccc2N1` (centres undefined): -2.03%.
The result for `Cc1ccc(N2CCCC(NC(=O)Cc3csc(C)n3)C2=O)cc1` (centres undefined) reads -0.932%; that for `Cc1cc(N2CCC(NCCOc3ccccc3)CC2)nc(C)n1`, 3.15%; that for `O=C(Nc1ccccc1OC1CCOC1)c1ccon1` (centres undefined), -1.12%.
The result for `Cc1ncccc1C(=O)Nc1cccc2c1C(=O)NC2` reads -2.21%; that for `COCCNC(=O)c1cc(F)ccc1NS(C)(=O)=O`, -1.48%; that for `CC(c1nc(C2CC2)no1)N(C)Cc1ccc(C#N)cc1` (centres undefined), -1.86%.
Take `CCOCc1ccccc1NC(=O)NCC(C)(O)c1ccsc1` (centres undefined): the cytotoxicity at 70.5 h is -2.17%.
In the case of `CCN(CC(=O)NC)C(=O)Cc1csc(C(C)C)n1`, the cytotoxicity at 70.5 h is -1.76%.
The result for `CCS(=O)(=O)c1ccc2c(c1)OCCCO2` reads 0.078%.
The result for `N#Cc1cccnc1NC1CCN(c2ccccc2OC(F)F)C1=O` (centres undefined) reads 17.8%.
The same measure for `CS(=O)(=O)CCN(CC1CCCO1)C1CCCC1` (centres undefined): 19.5%; for `CC(C)c1nnc2n1CCN(C(=O)c1ccc(OCC3CC3)nc1)C2`: 11%.
On to `COc1c(CNCC(O)COc2ccc3c(c2)OCO3)c(C)nn1C` (centres undefined), for which the cytotoxicity at 70.5 h stood at 14.9%.
On to `Nc1nccnc1C(=O)N1CCN(Cc2cccc3ccccc23)CC1`, for which the cytotoxicity at 70.5 h was determined as 28%.
The result for `CN(C)c1cc(C(=O)NCC2(c3cccc(F)c3)CCOCC2)ccn1` reads -4.88%; that for `Cc1nc(CNCC(O)COc2ccc3c(c2)OCO3)cs1` (centres undefined), 1.9%.
In the case of `Cn1cccc(NC(=O)COc2ccc(Br)cc2)c1=O`, the cytotoxicity at 70.5 h came out at 21.8%.
The result for `CN(C)S(=O)(=O)Nc1ccc(-n2nccc2C(F)(F)F)cc1` reads 6.87%.
On to `Nc1nccnc1C(=O)N1CC(OCc2cccc3ccccc23)C1`, for which the cytotoxicity at 70.5 h worked out at 9.66%.
As to `Cc1nnc2ccc(N3CCC4(CCOC4)C3)nn12` (centres undefined), the cytotoxicity at 70.5 h is -3.17%.
The result for `NS(=O)(=O)CCN1CCOC(c2ccsc2)C1` (centres undefined) reads 1.05%; that for `O=C1CCC(=O)N1CCN1CCOC(c2ccsc2)C1` (centres undefined), 3.03%.
The result for `Cn1cnn(Cc2c(F)cccc2Br)c1=O` reads 24.5%.
The same measure for `NC(=O)N1CC(OCc2cccc3ccccc23)C1`: 2.87%.
Turning to `N#Cc1ccccc1N1CCC(Nc2nccnc2C#N)CC1`, the cytotoxicity at 70.5 h stood at 0.142%.
The result for `CCS(=O)(=O)CCN(CC1CCCO1)C1CCCC1` (centres undefined) reads -2.46%.
The result for `Cc1cc(CN(C)Cc2ncc(-c3cccs3)o2)no1` reads 0.203%; that for `CCc1nc(CN(C)Cc2ncc(-c3cccs3)o2)cs1`, -1.61%; that for `COC(=O)N1CCC(NC2CCSCC2)C1` (centres undefined), 0.96%.
The result for `Cc1csc(C2CCCCN2C(=O)CCn2cncn2)n1` (centres undefined) reads 33.9%.
On to `CC(C)C(=O)NCCNC(=O)C(C)OCC(F)(F)F` (centres undefined), for which the cytotoxicity at 70.5 h is -8.9%.
The same measure for `O=C(NCC(O)c1ccccc1C(F)(F)F)c1cccnc1` (centres undefined): -11%; for `CCN(CC)Cc1ccc(C(=O)NC2CCc3ccccc32)o1` (centres undefined): 21.6%; for `CC(=O)N1Cc2ccccc2CC1C(=O)Nc1ccc(C)cn1` (centres undefined): -15.7%.
The same measure for `CS(=O)(=O)N1CCN(c2cc(N3CCCC3CO)ncn2)CC1` (centres undefined): -7.63%; for `O=C(CN1CCCC(c2ccn[nH]2)C1)N1CCCc2ccccc21` (centres undefined): 15.3%.
The same measure for `CN(C)CC(=O)N1CCN(c2cc(N3CCCC3CO)ncn2)CC1` (centres undefined): -6.08%; for `CSc1nsc(NC(=O)N(C)Cc2ccc3c(c2)OCO3)n1`: -8.04%.
On to `COC(=O)c1ccc(CCn2cnc(C#N)n2)cc1`, for which the cytotoxicity at 70.5 h was found to be 13.2%.
As to `Cc1cc(S(=O)(=O)N(CCO)C2CC2)ccc1F`, the cytotoxicity at 70.5 h was -2.56%.
The same measure for `CS(=O)(=O)CC1(CNc2c(C#N)cnc3ccc(Cl)cc23)CC1`: -5.19%; for `CN(C)CCC1CCN(c2cc(N3CCCC3CO)ncn2)CC1` (centres undefined): 11.7%; for `CCC1COCCN1C(=O)NCc1nccn1CC(C)C` (centres undefined): -15.6%.
Take `CCC1COCCN1C(=O)NCc1nccn1CCc1ccccc1` (centres undefined): the cytotoxicity at 70.5 h was -5.72%.
As to `O=C(NCc1nccs1)N1CCOC(c2ccccc2Cl)C1` (centres undefined), the cytotoxicity at 70.5 h worked out at 10.9%.
The same measure for `CN(Cc1cccc(OC(F)(F)F)c1)Cc1cnn(C)c1`: -12.4%; for `Cc1cc(C2CCCN(CCC(=O)N3CCc4ccccc43)C2)n[nH]1` (centres undefined): -4.23%; for `CC(C)N(Cc1ccccn1)C(=O)CCOc1cccc(F)c1`: -4.61%.
For `CCc1ccc(CCn2cnc(C#N)n2)cc1`, the cytotoxicity at 70.5 h was -7.83%.
For the compound `CN(C)C(=O)N1CCN(c2cc(N3CCCC3CO)ncn2)CC1` (centres undefined), the cytotoxicity at 70.5 h was -4.25%.
Turning to `CC(SCC(=O)N(C)CC(=O)NC1CC1)c1cc(F)ccc1F` (centres undefined), the cytotoxicity at 70.5 h came to 14.2%.
For `Cc1nc(CN(CCS(C)(=O)=O)C(C)(C)C)no1`, the cytotoxicity at 70.5 h is 42.5%.
The same measure for `O=C(COCC1CC1)Nc1ncccc1I`: 2.42%.
The result for `CCOCCN1CCN(c2ccc(CN(C)C)cn2)CC1` reads -5.47%; that for `COc1ccc(C(NCc2cccc(C#N)c2)C(C)C)cc1` (centres undefined), 5.48%; that for `O=C(COCC1CC1)Nc1ncccc1O`, -6.89%.
With `CC1CCN(C(=O)C(C)N2CCN(c3nccs3)CC2)CC1` (centres undefined), the cytotoxicity at 70.5 h is -7%.
In the case of `Cc1cc(CN(C)C(=O)C2CC(c3cccc(F)c3)=NO2)no1` (centres undefined), the cytotoxicity at 70.5 h is -10.1%.
The same measure for `O=C(Nc1ccc2c(c1)C(=O)NC2)c1ccc(S(=O)(=O)C(F)(F)F)cc1`: -2.46%.
On to `CCCNC(=O)C1CCN(CC(O)c2ccccc2C(F)(F)F)CC1` (centres undefined), for which the cytotoxicity at 70.5 h was determined as 0.668%.
The same measure for `CCOc1ncccc1NC(=O)N1CCC(n2cncn2)CC1`: -8.07%; for `CS(=O)(=O)Nc1cccc(C(=O)Nc2ccc3c(c2)C(=O)NC3)c1`: -6.35%.
The same measure for `CC(=O)NCc1ccc(C(=O)Nc2ccc3c(c2)C(=O)NC3)cc1`: -2.55%.
The same measure for `O=C1C(n2nnc(-c3ccsc3)n2)CCN1CC(F)(F)F` (centres undefined): -11.5%; for `CCn1cc(S(=O)(=O)N2CCCC2c2ccc(C)o2)cn1` (centres undefined): 2.79%.
As to `CC(c1ccc(-n2cncn2)cc1)N(C)Cc1ccccn1` (centres undefined), the cytotoxicity at 70.5 h is -7.98%.
Turning to `COCCCn1ccc(NCc2ccc(NC(C)=O)cc2)n1`, the cytotoxicity at 70.5 h was -6.7%.
The result for `CC(=O)Nc1ccc(CNc2ccn(Cc3ccccc3)n2)cc1` reads -3.05%; that for `CN(Cc1cccc(C#N)c1)C(=O)C1CC(c2cccc(F)c2)=NO1` (centres undefined), -6.75%; that for `CC(OCC1CC1)C(=O)Nc1ncccc1I` (centres undefined), -6.4%.
The same measure for `Cc1cc(C)n(-c2ccc(C(=O)NCC(c3cccs3)N(C)C)cc2)n1` (centres undefined): -4.5%; for `CCCN(CCC)C(=O)CN(C)Cc1cnc(C)s1`: 3.46%.
As to `Cc1nc(C)c(C(=O)N2CCN(CCOc3ccccc3C)CC2)o1`, the cytotoxicity at 70.5 h is -8.43%.
The result for `CCCC(=O)N1CCCN(C(=O)c2oc(C)nc2C)CC1` reads -4.74%.
For the compound `Cc1nc(CN(CCS(C)(=O)=O)C(C)C)no1`, the cytotoxicity at 70.5 h is -5.83%.
The result for `Cc1cc(C(=O)NC2(c3ccc(Br)cc3)CC2)n(C)n1` reads 6.63%; that for `CC(=O)c1cc(C(=O)NC2(c3ccccc3)CCC2)n(C)c1`, -6.28%.
The same measure for `Cc1cc(C)cc(OCCC(=O)NC2CC(=O)N(C)C2)c1` (centres undefined): -0.646%; for `Cc1ncc(COc2ccc(N(C)S(C)(=O)=O)cc2)s1`: 3.82%; for `CCC(CC)CS(=O)(=O)NC(=O)C1CCCC1`: 26.6%.
Regarding `Cc1nc(C)c(COc2ccc(N(C)S(C)(=O)=O)cc2)s1`, the cytotoxicity at 70.5 h worked out at 2.74%.
Take `NC(=O)c1ccc(CNC2CCCSC2)cc1` (centres undefined): the cytotoxicity at 70.5 h was -1.72%.
In the case of `CS(=O)(=O)c1cccc(S(=O)(=O)NC(=O)CC2CCCCC2)c1`, the cytotoxicity at 70.5 h is -4.36%.
The result for `CC(=O)Nc1cc(CN(C)C)ccc1C` reads -6.9%; that for `CS(=O)(=O)c1cccc(S(=O)(=O)NC(=O)CC2CCCC2)c1`, -3.3%; that for `O=C(Nc1ccccc1)c1ccc(NCc2ccncc2)nn1`, -5.4%.
As to `NC(=O)c1ccc(CNC2CC2)cc1`, the cytotoxicity at 70.5 h stood at 16%.
The result for `FC(F)(F)c1cccc(-c2c[nH]c(C3CCCN3)n2)c1` (centres undefined) reads 1.03%.
